Laboratory results from ChEMBL document CHEMBL1201862, “PubChem BioAssay data set” (2004).
Calls of active or inactive are those of the source.

Key:
BJ [1] = test: cytotoxicity toward BJ-TERT fibroblasts, dose response, cell-based, RAS-independent, luminescence (AID 1933); format: functional; details: Homo sapiens
[2] = cytotoxicity toward DRD oncogenic fibroblasts, dose response, cell-based, non-viral oncogenic, luminescence (AID 1934); format: functional; details: Homo sapiens
Genome polyprotein = Genome polyprotein (dengue virus type 2, UniProt P29990); test: Dengue-2 NS5 methyltransferase inhibitors, primary screen, biochemical, confirmation dose response (AID 588689); format: functional
BJ [3] = test: cytotoxicity toward BJ-TERT-LT-ST fibroblasts, dose response, cell-based, RAS-independent, luminescence (AID 1935); format: functional; details: Homo sapiens;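 note: BJ fibroblasts immortalized with TERT plus LT and ST oncogenes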
[4] = molecular target: T1, Nuclear receptor subfamily 0 group B member 1 (Homo sapiens, UniProt P51843); test: Luminescence-based cell-based high throughput dose response assay for inhibitors of the orphan nuclear receptor subfamily 0, group B, member 1 (DAX1; NR0B1). [Related pubchem assays (depositor defined):AID504766, AID504790]; format: functional
T1 sequence (P51843 whole entry): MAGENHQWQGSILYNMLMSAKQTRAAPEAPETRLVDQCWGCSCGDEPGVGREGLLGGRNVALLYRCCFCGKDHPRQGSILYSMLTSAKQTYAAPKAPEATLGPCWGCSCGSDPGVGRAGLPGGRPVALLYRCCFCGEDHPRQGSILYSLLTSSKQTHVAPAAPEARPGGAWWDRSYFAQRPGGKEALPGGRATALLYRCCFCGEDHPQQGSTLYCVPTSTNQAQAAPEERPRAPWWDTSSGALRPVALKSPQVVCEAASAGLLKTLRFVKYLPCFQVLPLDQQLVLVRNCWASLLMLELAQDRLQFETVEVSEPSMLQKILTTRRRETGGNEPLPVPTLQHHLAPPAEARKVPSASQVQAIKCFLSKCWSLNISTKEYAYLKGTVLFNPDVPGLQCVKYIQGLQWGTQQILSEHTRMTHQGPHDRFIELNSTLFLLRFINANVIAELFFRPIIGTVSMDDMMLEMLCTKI

BJ [5] = test: cells; format: functional, cell-based; details: Homo sapiens
HEK293 = test: cells; format: functional, cell-based; details: Homo sapiens
[6] = off-target signal loss in HeLa-CEM21 co-culture – HeLa F-luc CTL cells, cherry-picked, counter-screen for HIV-1 Env fusion inhibitor project, dose response (AID 652040); format: functional, cell-based;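 note: potency for signal decrease marking cytotoxic or nonspecific inhibition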
[7] = inhibitors of HIV Env-driven cell fusion, dose response, cherry-pick (AID 652057); format: functional, cell-based
[8] = inhibitors of SNCA 5'UTR-driven reporter translation, confirmation, H4 neuroglioma cells, luminescence (AID 1988); format: functional, cell-based
[9] = ZM109 Env clade C HIV-1 fusion inhibitors, dose response, HeLa effector, CEM target cells, luciferase, cherry-pick (AID 652058); format: functional, cell-based
[10] = Luminescence Cell-Based Dose Response HTS to Identify Inhibitors of 5'UTR Stem-Loop Driven Prion Protein mRNA Translation in H4 Neuroglioblastoma Cells. [Related pubchem assays: 1827 (Project Summary), 1813 (Primary HTS)]; format: functional
[11] = inhibitors of firefly luciferase expression or activity, dose response, H4 neuroglioma cells, luminescence (AID 1990); format: functional, cell-based
[12] = inhibitors of clade B AD8 Env fusion, dose response, cell-based, cherry-pick (AID 652062); format: functional;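 note: luciferase signal from cell-cell fusion driven by HIV-1 clade B AD8 Env; potency is for inhibitors of fusion seen as a drop in luminescence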
Vero = test: cells; format: functional; details: Chlorocebus sabaeus
HeLa = test: HeLa cell cytotoxicity, dose response, cytotoxicity control for MITF activator project, CellTiter-Glo luminescence, cherry-pick samples (AID 540259); format: functional, cell-based; details: Homo sapiens
[13] = molecular target: T2, Rac GTPase-activating protein 1 (Homo sapiens, UniProt Q9H0H5); test: MgcRacGAP GTPase-activating activity inhibitors, confirmation, biochemical, ADP Hunter fluorescence, primary and confirmatory (AID 624330); format: functional
T2 sequence (Q9H0H5 whole entry): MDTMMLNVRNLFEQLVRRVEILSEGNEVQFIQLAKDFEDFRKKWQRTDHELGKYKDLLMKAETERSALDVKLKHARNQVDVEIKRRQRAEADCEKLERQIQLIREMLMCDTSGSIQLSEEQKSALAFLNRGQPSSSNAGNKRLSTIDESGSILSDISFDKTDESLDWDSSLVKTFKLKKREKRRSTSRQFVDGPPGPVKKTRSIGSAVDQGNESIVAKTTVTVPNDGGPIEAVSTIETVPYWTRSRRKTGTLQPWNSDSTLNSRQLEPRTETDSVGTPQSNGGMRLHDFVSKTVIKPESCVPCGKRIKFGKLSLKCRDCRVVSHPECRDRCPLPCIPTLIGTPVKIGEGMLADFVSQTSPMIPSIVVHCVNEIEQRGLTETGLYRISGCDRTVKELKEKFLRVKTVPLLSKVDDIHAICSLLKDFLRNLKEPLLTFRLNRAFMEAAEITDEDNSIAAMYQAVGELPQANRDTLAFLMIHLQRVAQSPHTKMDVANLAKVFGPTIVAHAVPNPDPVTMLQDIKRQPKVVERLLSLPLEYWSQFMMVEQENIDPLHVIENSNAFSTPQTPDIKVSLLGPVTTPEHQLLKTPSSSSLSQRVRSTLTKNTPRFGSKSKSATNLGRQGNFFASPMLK

[14] = molecular target: T3, Hepatocyte nuclear factor 4-alpha (Homo sapiens, UniProt P41235); format: functional, cell-based;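 note: biochemical luminescence-based dose-response counterscreen measuring inhibition of HNF4 dimerization, run alongside a screen for blockers of ABHD5–perilipin-5 interaction; split luciferase complementation of HNF4 fusion proteins in cell lysate measuring dimerization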
T3 sequence (P41235 whole entry): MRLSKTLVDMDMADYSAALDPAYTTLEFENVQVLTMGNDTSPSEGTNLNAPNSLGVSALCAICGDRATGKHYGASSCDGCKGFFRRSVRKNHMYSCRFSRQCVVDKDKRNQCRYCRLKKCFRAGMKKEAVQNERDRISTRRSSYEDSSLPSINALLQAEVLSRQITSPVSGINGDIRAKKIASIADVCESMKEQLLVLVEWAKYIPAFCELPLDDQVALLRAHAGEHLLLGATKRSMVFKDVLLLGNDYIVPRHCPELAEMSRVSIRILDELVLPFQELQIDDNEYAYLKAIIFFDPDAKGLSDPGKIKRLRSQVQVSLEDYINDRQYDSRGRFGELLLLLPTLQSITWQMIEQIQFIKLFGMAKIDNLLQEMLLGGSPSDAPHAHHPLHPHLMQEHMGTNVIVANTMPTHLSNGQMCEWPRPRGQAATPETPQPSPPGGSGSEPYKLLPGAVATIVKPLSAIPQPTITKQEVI

Sequence of Genome polyprotein (P29990 2492-3391 limits assumed): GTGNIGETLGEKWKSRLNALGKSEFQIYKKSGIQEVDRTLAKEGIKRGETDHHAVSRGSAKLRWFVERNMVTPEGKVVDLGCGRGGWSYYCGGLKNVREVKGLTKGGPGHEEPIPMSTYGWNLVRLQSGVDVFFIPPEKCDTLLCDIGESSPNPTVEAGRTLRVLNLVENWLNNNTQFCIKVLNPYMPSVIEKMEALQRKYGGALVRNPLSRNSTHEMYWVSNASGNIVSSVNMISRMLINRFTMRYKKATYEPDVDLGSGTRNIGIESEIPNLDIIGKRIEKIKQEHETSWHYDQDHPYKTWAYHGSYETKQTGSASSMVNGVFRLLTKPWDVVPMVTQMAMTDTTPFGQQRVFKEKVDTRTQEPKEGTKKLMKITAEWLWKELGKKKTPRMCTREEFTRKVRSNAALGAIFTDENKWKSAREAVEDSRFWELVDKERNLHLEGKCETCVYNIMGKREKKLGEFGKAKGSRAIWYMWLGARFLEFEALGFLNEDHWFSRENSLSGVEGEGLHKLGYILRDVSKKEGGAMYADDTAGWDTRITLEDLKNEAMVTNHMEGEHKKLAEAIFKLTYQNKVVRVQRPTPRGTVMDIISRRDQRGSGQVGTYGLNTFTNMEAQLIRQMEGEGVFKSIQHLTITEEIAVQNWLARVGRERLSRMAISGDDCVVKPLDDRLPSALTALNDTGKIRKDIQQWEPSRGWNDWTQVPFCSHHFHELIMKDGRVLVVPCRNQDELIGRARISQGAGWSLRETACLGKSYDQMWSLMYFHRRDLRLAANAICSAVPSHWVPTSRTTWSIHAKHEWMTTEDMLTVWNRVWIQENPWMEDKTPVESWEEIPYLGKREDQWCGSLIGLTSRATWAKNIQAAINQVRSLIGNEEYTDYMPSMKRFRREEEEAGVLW

## O=C(O)c1ccccc1C(=O)c1ccc(Sc2ccc(Cl)cc2)c([N+](=O)[O-])c1
BJ [1]
  EC50: > 150 µM (not active)
[2]
  EC50: > 150 µM (not active)
Genome polyprotein
  IC50: 35.1 µM (active)
BJ [3]
  EC50: > 150 µM (not active)
[4]
  IC50: > 67.5 µM (inactive)
BJ [5]
  EC50: > 150 µM (not active)
HEK293
  IC50: > 67.5 µM (inactive)

## O=C(NCc1ccco1)c1ccc(Cn2c(=O)c3ccccc3n(Cc3cccc(F)c3)c2=O)cc1
[6]
  AC50: 3.52 µM (active)
[7]
  AC50: 2.17 µM (active)
[8]
  EC50: 41.4 µM (active)
[9]
  AC50: 5.5 µM (active)
[10]
  EC50: > 120 µM (not active)
[11]
  EC50: 15.1 µM (active)

## COc1cc(OCC(=O)NC(C)C)cc2c1C(=O)O[C@@H](C)CCCC(=O)CCCCC2
[6]
  AC50: 10.5 µM (active)
[7]
  AC50: 6.38 µM (active)
[9]
  AC50: 6.68 µM (active)
[12]
  AC50: 26.4 µM (active)

## CCCCC(=O)NC(c1ccc([N+](=O)[O-])cc1)c1c(O)ccc2ccccc12 (configuration not stated)
Vero
  CC50: 9.36 µM (active)

## CN1CCSc2ccc(C(=O)Nc3cc(F)ccc3F)cc21
[4]
  IC50: > 67.5 µM (inactive)
HEK293
  IC50: > 67.5 µM (inactive)
HeLa
  AC50: 44.2 µM (active)

## O=C(/C(=C/c1ccccc1)n1cncn1)c1ccc(Cl)cc1Cl
[13]
  IC50: 150 µM (active)
[14]
  IC50: 3.22 µM (active)

## CCOC(=O)CSc1nc2cc3c(cc2cc1C#N)OCCO3
[4]
  IC50: > 67.5 µM (inactive)
HEK293
  IC50: > 67.5 µM (inactive)

## O=C(CC(O)CCc1ccccc1)c1ccc(O)cc1 (configuration not stated)
[4]
  IC50: > 67.5 µM (inactive)
HEK293
  IC50: > 67.5 µM (inactive)
